From ChEMBL document CHEMBL5303573, “Mapping human microbiome drug metabolism by gut bacteria and their genes” (Nature, 2019)

Tests used:
[1] = The drug is tested on Collinsella intestinalis strain: DSM13280 for biotransformation. The drug concentrations were measured before and after a 12-h incubation by liquid-chromatography-coupled mass spectrometry (LC–MS); conditions: 2 µM
[2] = The drug is tested on Bacteroides coprophilus strain: DSM18228 for biotransformation. The drug concentrations were measured before and after a 12-h incubation by liquid-chromatography-coupled mass spectrometry (LC–MS); conditions: 2 µM
[3] = The drug is tested on Bacteroides dorei strain: DSM17855 for biotransformation. The drug concentrations were measured before and after a 12-h incubation by liquid-chromatography-coupled mass spectrometry (LC–MS); conditions: phocaeicola dorei, 2 µM
[4] = The drug is tested on Bacteroides fragilis strain: ATCC43859 for biotransformation. The drug concentrations were measured before and after a 12-h incubation by liquid-chromatography-coupled mass spectrometry (LC–MS); conditions: 2 µM
[5] = The drug is tested on Bacteroides ovatus strain: ATCC8483 for biotransformation. The drug concentrations were measured before and after a 12-h incubation by liquid-chromatography-coupled mass spectrometry (LC–MS); conditions: 2 µM
[6] = The drug is tested on Bacteroides vulgatus strain: ATCC8482 for biotransformation. The drug concentrations were measured before and after a 12-h incubation by liquid-chromatography-coupled mass spectrometry (LC–MS); conditions: phocaeicola vulgatus, 2 µM
[7] = The drug is tested on Parabacteroides merdae strain: ATCC43184 for biotransformation. The drug concentrations were measured before and after a 12-h incubation by liquid-chromatography-coupled mass spectrometry (LC–MS); conditions: 2 µM
[8] = The drug is tested on Anaerococcus hydrogenalis strain: DSM7454 for biotransformation. The drug concentrations were measured before and after a 12-h incubation by liquid-chromatography-coupled mass spectrometry (LC–MS); conditions: 2 µM
[9] = The drug is tested on Blautia hansenii strain: DSM20583 for biotransformation. The drug concentrations were measured before and after a 12-h incubation by liquid-chromatography-coupled mass spectrometry (LC–MS); conditions: 2 µM
[10] = The drug is tested on Coprococcus comes strain: ATCC27758 for biotransformation. The drug concentrations were measured before and after a 12-h incubation by liquid-chromatography-coupled mass spectrometry (LC–MS); format: ADME; parameters: dose 2 uM, timepoint 0 vs 12 hours; conditions: 2 µM
[11] = The drug is tested on Eubacterium hallii strain: DSM3353 for biotransformation. The drug concentrations were measured before and after a 12-h incubation by liquid-chromatography-coupled mass spectrometry (LC–MS); conditions: anaerobutyricum hallii, 2 µM
[12] = bifidobacterium adolescentis, 12 h, 2 µM
Description: The drug is tested on Bifidobacterium adolescentis strain: ATCC 15703 for biotransformation. The drug concentrations were measured before and after a 12-h incubation by liquid-chromatography-coupled mass spectrometry (LC–MS)

[13] = bacteroides fragilis, 12 h, 2 µM
Description: The drug is tested on Bacteroides fragilis strain: NCTC 9343 for biotransformation. The drug concentrations were measured before and after a 12-h incubation by liquid-chromatography-coupled mass spectrometry (LC–MS)

[14] = bacteroides fragilis, 12 h, 2 µM; remark: listed apart in the source
Description: The drug is tested on Bacteroides fragilis strain: DS-208 for biotransformation. The drug concentrations were measured before and after a 12-h incubation by liquid-chromatography-coupled mass spectrometry (LC–MS)

[15] = anaerostipes sp., 12 h, 2 µM
Description: The drug is tested on Anaerostipes sp. strain: fecal isolate for biotransformation. The drug concentrations were measured before and after a 12-h incubation by liquid-chromatography-coupled mass spectrometry (LC–MS)

[16] = The drug is tested on Providencia rettgeri strain: DSM1131 for biotransformation. The drug concentrations were measured before and after a 12-h incubation by liquid-chromatography-coupled mass spectrometry (LC–MS); format: ADME; parameters: dose 2 uM, timepoint 0 vs 12 hours; conditions: 2 µM
[17] = The drug is tested on Providencia stuartii strain: ATCC25827 for biotransformation. The drug concentrations were measured before and after a 12-h incubation by liquid-chromatography-coupled mass spectrometry (LC–MS); conditions: 2 µM
[18] = bacteroides fragilis, 12 h, 2 µM; remark: listed apart in the source
Description: The drug is tested on Bacteroides fragilis strain: 3397 (T10) for biotransformation. The drug concentrations were measured before and after a 12-h incubation by liquid-chromatography-coupled mass spectrometry (LC–MS)

[19] = bacteroides stercoris, 12 h, 2 µM
Description: The drug is tested on Bacteroides stercoris strain: ATCC43183 for biotransformation. The drug concentrations were measured before and after a 12-h incubation by liquid-chromatography-coupled mass spectrometry (LC–MS)

SMILES | Bacterial Biotransformation [1] | Bacterial Biotransformation [2] | Bacterial Biotransformation [3] | Bacterial Biotransformation [4] | Bacterial Biotransformation [5] | Bacterial Biotransformation [6] | Bacterial Biotransformation [7] | Bacterial Biotransformation [8] | Bacterial Biotransformation [9] | Bacterial Biotransformation [10] | Bacterial Biotransformation [11] | Bacterial Biotransformation [12] | Bacterial Biotransformation [13] | Bacterial Biotransformation [14] | Bacterial Biotransformation [15] | Bacterial Biotransformation [16] | Bacterial Biotransformation [17] | Bacterial Biotransformation [18] | Bacterial Biotransformation [19]
COc1ccc([C@@H]2Sc3ccccc3N(CCN(C)C)C(=O)[C@@H]2OC(C)=O)cc1 [DILTIAZEM] | Compound NOT metabolized | Compound metabolized | Compound metabolized | Compound NOT metabolized | Compound metabolized | Compound metabolized | Compound metabolized | Compound NOT metabolized | Compound metabolized | Compound metabolized | Compound metabolized | Compound NOT metabolized | Compound metabolized | Compound NOT metabolized | Compound metabolized |  |  |  | 
OCCN(CCO)c1nc(N2CCCCC2)c2nc(N(CCO)CCO)nc(N3CCCCC3)c2n1 [DIPYRIDAMOLE] | Compound NOT metabolized | Compound NOT metabolized | Compound metabolized |  | Compound NOT metabolized | Compound metabolized | Compound metabolized | Compound NOT metabolized | Compound metabolized | Compound NOT metabolized | Compound NOT metabolized | Compound NOT metabolized | Compound metabolized | Compound metabolized | Compound NOT metabolized | Compound NOT metabolized | Compound NOT metabolized | Compound NOT metabolized | Compound NOT metabolized
CNCC[C@H](Oc1cccc2ccccc12)c1cccs1 [DULOXETINE] | Compound NOT metabolized | Compound metabolized | Compound metabolized | Compound NOT metabolized | Compound metabolized |  | Compound metabolized | Compound NOT metabolized | Compound metabolized |  |  | Compound NOT metabolized | Compound metabolized | Compound NOT metabolized | Compound NOT metabolized | Compound metabolized |  |  | Compound metabolized
CC(C)(C)NC(=O)[C@H]1CC[C@H]2[C@@H]3CC[C@H]4NC(=O)C=C[C@]4(C)[C@H]3CC[C@]12C [FINASTERIDE] | Compound NOT metabolized | Compound NOT metabolized | Compound metabolized | Compound metabolized | Compound NOT metabolized | Compound metabolized | Compound NOT metabolized | Compound NOT metabolized | Compound NOT metabolized | Compound NOT metabolized | Compound NOT metabolized | Compound NOT metabolized | Compound metabolized | Compound metabolized | Compound NOT metabolized |  | Compound NOT metabolized | Compound NOT metabolized | Compound NOT metabolized
Cc1ccc(NC(=O)c2ccc(CN3CCN(C)CC3)cc2)cc1Nc1nccc(-c2cccnc2)n1 [IMATINIB] | Compound NOT metabolized | Compound NOT metabolized | Compound NOT metabolized | Compound NOT metabolized | Compound NOT metabolized | Compound metabolized | Compound NOT metabolized | Compound NOT metabolized | Compound NOT metabolized | Compound NOT metabolized |  | Compound NOT metabolized |  | Compound NOT metabolized | Compound NOT metabolized |  | Compound NOT metabolized |  | Compound NOT metabolized
CC1Cc2ccccc2N1NC(=O)c1ccc(Cl)c(S(N)(=O)=O)c1 (configuration not stated) [INDAPAMIDE] | Compound NOT metabolized | Compound NOT metabolized | Compound NOT metabolized |  | Compound NOT metabolized | Compound NOT metabolized | Compound NOT metabolized | Compound NOT metabolized | Compound NOT metabolized | Compound NOT metabolized | Compound NOT metabolized | Compound NOT metabolized | Compound NOT metabolized | Compound NOT metabolized | Compound NOT metabolized | Compound NOT metabolized |  | Compound NOT metabolized | Compound NOT metabolized
CCN(CC)CCOC(=O)C(Cc1cccc2ccccc12)CC1CCCO1.O=C(O)C(=O)O (configuration not stated) [NAFRONYL OXALATE] | Compound NOT metabolized |  |  | Compound NOT metabolized | Compound NOT metabolized | Compound metabolized |  | Compound NOT metabolized | Compound metabolized | Compound NOT metabolized | Compound NOT metabolized | Compound NOT metabolized | Compound metabolized | Compound NOT metabolized | Compound NOT metabolized |  | Compound NOT metabolized | Compound NOT metabolized | Compound NOT metabolized
